Experiments:
S1P1 receptor = S1P1 receptor (Homo sapiens, UniProt P21453); assay: S1P1 receptor agonistic activity (PathHunter cell strain, chemiluminescent signal detection); format: cell-based; conditions: PathHunter cells, agonist mode, 37° C. 90-180 minutes
Experimental: Test Method: […] Cell Processing i) Thaw the PathHunter cell strain according to the standard procedures. ii) Seed the cell in the 20 μL 384-microwell plate and incubate at 37° C. for an appropriate period. 2. Agonist i) For agonist testing, cells were incubated with the sample to be test to initiate a reaction; ii) The stock solution to be tested has been diluted 5 folds to be a buffer solution; iii) Inject the 5-fold diluted solution (5 μL) into the cells and incubate at 37° C. for 90-180 minutes. […] 3. Signal Detection i) Add 12.5 μL or 15 μL PathHunter detection reagent (50 vol. %) in one portion. Then, incubate at room temperature for 1 hour and generate the detection signal; ii) Use PerkinElmer Evision™ instrument to read the microwell plate to proceed with chemiluminescent signal detection. 4. Data Analysis i) Use CBIS data analysis system for the compound activity analysis. ii) Calculation formula: […]

[1] = Evaluation of compound pharmacokinetics in SD rats (intravenous injection and oral administration); format: in vivo; conditions: male, Sprague Dawley, rat, plasma, 2 mg/kg, 2 mpk; for clearance: read-out: Clearance rate; for AUC: read-out: Drug concentration integral: AUC; for half-life: read-out: Half-life period: T1/2 (converted); for bioavailability: oral, read-out: Fraction of bioavailability: F
Experimental: Aim of the experiments: To test pharmacokinetics of the compounds in SD rats. Experimental Materials: Sprague Dawley rats (male, 200-300 g, 7-9 weeks old, Shanghai Slack) Experimental Procedure: The rodent pharmacokinetic characteristics of the compounds after intravenous injection and oral administration were tested by the standard protocol. In the experiments, the transparent solution was prepared with the compounds to be test. The rats were administered single intravenous injection and oral administration. The solvent for intravenous injection and oral administration was aqueous hydroxypropyl β-cyclodextrin solution or normal saline solution with a certain concentration. Collect the blood samples within 24 hours and centrifuge at 3000 G for 15 minutes. Separate the supernatant to obtain the plasma samples. A volume of acetonitrile solution containing internal standard was added 4 times as the sample to precipitate the protein. The supernatant was obtained after centrifuge. An equal volume of water was added and then centrifuge again to collect the supernatant. The LC-MS/MS method was used to quantitatively analyze the blood drug concentration and the pharmacokinetic parameters such as peak concentration, peak time, clearance rate, half-life period, area under the curve of the drug concentration, and fraction of bioavailability, etc. were calculated.

S1P1 receptor, sequence (P21453 whole entry): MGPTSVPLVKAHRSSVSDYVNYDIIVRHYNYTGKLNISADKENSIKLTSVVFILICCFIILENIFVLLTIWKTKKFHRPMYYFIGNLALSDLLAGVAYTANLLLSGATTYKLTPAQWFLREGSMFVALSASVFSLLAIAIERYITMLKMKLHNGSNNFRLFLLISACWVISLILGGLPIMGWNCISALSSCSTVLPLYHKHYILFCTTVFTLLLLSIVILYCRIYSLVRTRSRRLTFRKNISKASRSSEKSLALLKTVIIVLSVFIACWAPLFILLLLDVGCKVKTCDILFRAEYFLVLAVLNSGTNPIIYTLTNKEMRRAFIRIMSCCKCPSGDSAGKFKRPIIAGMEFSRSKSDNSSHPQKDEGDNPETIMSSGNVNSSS

| Compound | EC50 (S1P1 receptor) | further results |
| --- | --- | --- |
| CC(C)Oc1ccc(-c2ncc(-c3cccc4c3CC3CC(=O)N(CCO)C43)o2)cc1C#N (stereo not shown) [Example 4] | < 0.01 µM | – |
| N#Cc1cccc(-c2nc(-c3cccc4c3CC3CC(=O)N(CCO)C43)no2)c1 (stereo not shown) [Example 17] | > 0.1 µM | – |
| COc1ccc(-c2nc(-c3cccc4c3CC3CC(=O)N(CCO)C43)no2)cc1 (stereo not shown) [Example 18] | > 0.1 µM | – |
| O=C1CC2Cc3c(-c4noc(-c5ccc(OC(F)(F)F)cc5)n4)cccc3C2N1CCO (stereo not shown) [Example 19] | > 0.1 µM | – |
| CC(C)Oc1cccc(-c2nc(-c3cccc4c3CC3CC(=O)N(CCO)C43)no2)c1 (stereo not shown) [Example 20] | > 0.1 µM | – |
| O=C1CC2Cc3c(-c4noc(-c5ccc(OC6CC6)cc5)n4)cccc3C2N1CCO (stereo not shown) [Example 21] | > 0.1 µM | – |
| CC(C)Oc1ccccc1-c1nc(-c2cccc3c2CC2CC(=O)N(CCO)C32)no1 (stereo not shown) [Example 22] | > 0.1 µM | – |
| O=C1CC2Cc3c(-c4noc(-c5ccc(OCC6CC6)cc5)n4)cccc3C2N1CCO (stereo not shown) [Example 23] | > 0.1 µM | – |
| COCOc1ccc(-c2nc(-c3cccc4c3CC3CC(=O)N(CCO)C43)no2)cc1 (stereo not shown) [Example 24] | > 0.1 µM | – |
| CN(C)CCOc1ccc(-c2nc(-c3cccc4c3CC3CC(=O)N(CCO)C43)no2)cc1 (stereo not shown) [Example 28] | > 0.1 µM | – |
| Cc1nc(C)c(-c2nc(-c3cccc4c3CC3CC(=O)N(CCO)C43)no2)o1 (stereo not shown) [Example 29] | > 0.1 µM | – |
| CCCc1nnsc1-c1nc(-c2cccc3c2CC2CC(=O)N(CCO)C32)no1 (stereo not shown) [Example 30] | > 0.1 µM | – |
| O=C1CC2Cc3c(-c4noc(-c5nc6ccccn6c5F)n4)cccc3C2N1CCO (stereo not shown) [Example 31] | > 0.1 µM | – |
| O=C1CC2Cc3c(-c4noc(-c5csc(-c6ccccc6)n5)n4)cccc3C2N1CCO (stereo not shown) [Example 32] | > 0.1 µM | – |
| CN1CCc2nc(-c3nc(-c4cccc5c4CC4CC(=O)N(CCO)C54)no3)sc2C1 (stereo not shown) [Example 33] | > 0.1 µM | – |
| CC(C)c1ncc(-c2nc(-c3cccc4c3CC3CC(=O)N(CCO)C43)no2)s1 (stereo not shown) [Example 34] | > 0.1 µM | – |
| O=C1CC2Cc3c(-c4noc(-c5cnc6ncccn56)n4)cccc3C2N1CCO (stereo not shown) [Example 35 Compound 35-2] | > 0.1 µM | – |
| O=C1CC2Cc3c(-c4noc(-c5cn6cccnc6n5)n4)cccc3C2N1CCO (stereo not shown) [Example 35 Compound 35-3] | > 0.1 µM | – |
| O=C1CC2Cc3c(-c4noc(-c5cn6c(n5)CCCC6)n4)cccc3C2N1CCO (stereo not shown) [Example 36] | > 0.1 µM | – |
| O=C1CC2Cc3c(-c4noc(-c5cc(-c6nccs6)on5)n4)cccc3C2N1CCO (stereo not shown) [Example 37] | > 0.1 µM | – |
| O=C1CC2Cc3c(-c4noc(-c5cn(Cc6ccccc6)nn5)n4)cccc3C2N1CCO (stereo not shown) [Example 38] | > 0.1 µM | – |
| CC(C)Oc1ccc(-c2nc(-c3cccc4c3CC3CC(=O)N(CCO)C43)no2)cc1OCCN(C)C (stereo not shown) [Example 41] | > 0.1 µM | – |
| CC(C)Oc1ccc(-c2nc(-c3cccc4c3CC3CC(=O)N(CCO)C43)no2)c(C#N)c1 (stereo not shown) [Example 42] | > 0.1 µM | – |

Further lines, with some results ahead:

| EC50 (S1P1 receptor) | Compound | further results |
| --- | --- | --- |
| < 0.01 µM | CC(C)Oc1ccc(-c2nc(-c3cccc4c3C[C@@H]3OC(=O)N(CCO)[C@H]43)no2)cc1C#N (relative stereo) [Example 50] | clearance [1]: 0.395 L/h/kg; AUC [1]: 8.52 µM·h; half-life [1]: 4.82 h; bioavailability [1]: 72.4% |
| < 0.01 µM | CC(C)Oc1ccc(-c2nc(-c3cccc4c3CC3CC(=O)N(CCO)C43)no2)cc1C#N (stereo not shown) [Example 1 Mixture] | – |
| < 0.01 µM | CC(C)Oc1ccc(-c2ncc(-c3cccc4c3CC3CC(=O)N(CCO)C43)s2)cc1C#N (stereo not shown) [Example 2] | – |
| < 0.01 µM | CC(C)Oc1ccc(-c2nnc(-c3cccc4c3CC3CC(=O)N(CCO)C43)s2)cc1C#N (stereo not shown) [Example 3] | – |
| < 0.01 µM | CC(C)Oc1ccc(-c2ccc(-c3cccc4c3CC3CC(=O)N(CCO)C43)s2)cc1C#N (stereo not shown) [Example 5] | – |
| < 0.01 µM | CC(C)Oc1ccc(-c2nc(-c3cccc4c3CC3CC(=O)N(CCO)C43)ns2)cc1C#N (stereo not shown) [Example 6] | – |
| < 0.01 µM | CC(C)Oc1ccc(-c2nsc(-c3cccc4c3CC3CC(=O)N(CCO)C43)n2)cc1C#N (stereo not shown) [Example 7] | – |
| < 0.01 µM | CC(C)Oc1ccc(-c2nc(-c3cccc4c3CC3CC(=O)N(CCC(=O)O)C43)no2)cc1C#N (stereo not shown) [Example 9] | – |
| < 0.01 µM | CC(C)Oc1ccc(-c2nc(-c3cccc4c3CC3CC(=O)N(CCCC(=O)O)C43)no2)cc1C#N (stereo not shown) [Example 10] | – |
| < 0.01 µM | CC(C)Oc1ccc(-c2nc(-c3cccc4c3CC3CC(=O)N(CCCCC(=O)O)C43)no2)cc1C#N (stereo not shown) [Example 11] | – |
| < 0.01 µM | COCCN1C(=O)CC2Cc3c(-c4noc(-c5ccc(OC(C)C)c(C#N)c5)n4)cccc3C21 (stereo not shown) [Example 12] | – |
| < 0.01 µM | CC(C)Oc1ccc(-c2nc(-c3cccc4c3CC3CC(=O)N(CCS(C)(=O)=O)C43)no2)cc1C#N (stereo not shown) [Example 13] | – |
| < 0.01 µM | CC(C)Oc1ccc(-c2nc(-c3cccc4c3CC3CC(=O)N(CC(O)CO)C43)no2)cc1C#N (stereo not shown) [Example 14] | clearance [1]: 0.433 L/h/kg; AUC [1]: 5.76 µM·h; half-life [1]: 3.27 h; bioavailability [1]: 59% |
| 0.01 to 0.1 µM | CC(C)Oc1ccc(-c2nc(-c3cccc4c3CC3CC(=O)N(CC(=O)N(C)C)C43)no2)cc1C#N (stereo not shown) [Example 15] | – |
| > 0.1 µM | O=C1CC2Cc3c(-c4noc(-c5ccc(OC(F)F)cc5)n4)cccc3C2N1CCO (stereo not shown) [Example 16] | – |
| < 0.01 µM | CC(C)Oc1ccc(-c2nc(-c3cccc4c3CC3CC(=O)N(CCO)C43)no2)cc1Br (stereo not shown) [Example 25] | – |

| EC50 (S1P1 receptor) | Compound | further results |
| --- | --- | --- |
| < 0.01 µM | CC(C)Oc1ccc(-c2nc(-c3cccc4c3CC3CC(=O)N(CCO)C43)no2)cc1Cl (stereo not shown) [Example 26] | clearance [1]: 0.45 L/h/kg; AUC [1]: 4.35 µM·h; half-life [1]: 26.7 h; bioavailability [1]: 88.2% |
| < 0.01 µM | CC(C)Oc1ccc(-c2nc(-c3cccc4c3CC3CC(=O)N(CCO)C43)no2)cc1C(F)F (stereo not shown) [Example 27] | clearance [1]: 0.532 L/h/kg; AUC [1]: 4.78 µM·h; half-life [1]: 21.2 h; bioavailability [1]: 92.6% |
| 0.01 to 0.1 µM | CC(C)Oc1ccc(-c2nc(-c3cccc4c3CC3CC(=O)N(CCO)C43)no2)cc1 (stereo not shown) [Example 39] | – |
| < 0.01 µM | CC(C)Oc1ccc(-c2nc(-c3cccc4c3CC3CC(=O)N(CCO)C43)no2)cc1OC(F)F (stereo not shown) [Example 40] | clearance [1]: 0.846 L/h/kg; AUC [1]: 0.444 µM·h; half-life [1]: 10.7 h; bioavailability [1]: 82.3% |
| 0.01 to 0.1 µM | CC(C)Oc1ccc(-c2nc(-c3cccc4c3CC3CC(=O)N(CCO)C43)no2)cc1S(C)(=O)=O (stereo not shown) [Example 43] | – |
| 0.01 to 0.1 µM | COc1cc(-c2nc(-c3cccc4c3CC3CC(=O)N(CCO)C43)no2)cc(C2CCCC2)n1 (stereo not shown) [Example 44] | – |
| < 0.01 µM | CC(C)Oc1ccc(-c2nc(-c3cccc4c3CC3CCC(=O)N(CCO)C43)no2)cc1C#N (stereo not shown) [Example 45] | – |
| < 0.01 µM | CC(C)Oc1ccc(-c2nc(-c3cccc4c3CCC3CC(=O)N(CCO)C43)no2)cc1C#N (stereo not shown) [Example 46] | – |
| < 0.01 µM | CC(C)Oc1ccc(-c2nc(-c3cccc4c3CC3CC(=O)N(CCOS(=O)(=O)O)[C@H]43)no2)cc1C#N (stereo partly shown) [Example 47] | – |
| 0.01 to 0.1 µM | CC(C)Oc1ccc(-c2nc(-c3cccc4c3CC3CCN(CCO)C43)no2)cc1C#N (stereo not shown) [Example 49] | – |
| < 0.01 µM | CC(C)Oc1ccc(-c2nnc(-c3cccc4c3C[C@@H]3CC(=O)N(CCO)[C@H]43)o2)cc1C#N [Example 51] | – |
| < 0.01 µM | CC(C)Oc1ccc(-c2nc(-c3cccc4c3CC3CCN(CC(=O)O)C43)no2)cc1C#N (stereo not shown) [Example 52] | – |
| < 0.01 µM | CC(C)Oc1ccc(-c2nc(-c3cccc4c3C[C@@H]3CCN(C5CC(C(=O)O)C5)C43)no2)cc1C#N (stereo partly shown) [Example 53] | – |
| 0.01 to 0.1 µM | CC(C)Oc1ccc(-c2nc(-c3cccc4c3CC3CC(=O)N(CCO)[C@H]43)n[nH]2)cc1C#N (stereo partly shown) [Example 54] | – |
| 0.01 to 0.1 µM | CC(C)Oc1ccc(-c2nc(-c3cccc4c3C[C@@H]3CC(=O)N([C@@H](CO)C(C)C)C43)no2)cc1C#N (stereo partly shown) [Example 55] | – |
| < 0.01 µM | CC(C)Oc1ccc(-c2nc(-c3cccc4c3C[C@@H]3CC(=O)N([C@H](C)CO)C43)no2)cc1C#N (stereo partly shown) [Example 56] | clearance [1]: 0.876 L/h/kg; AUC [1]: 3.32 µM·h; half-life [1]: 1.63 h; bioavailability [1]: 66.7% |
